# Laboratory results as given in patent publication US4824937A, “Synthetic natriuretic peptides” (501 Advanced Peptide Development, Ltd., priority 1986, dated 1989).
# Ends that are not written are not given here.
# Assays:
# [1] = system: male normotensive Sprague-Dawley rats; test: Diuretic activity: urine flow after i.v. bolus in anesthetized rats; format: in vivo, rat; settings: 3.5 mcg/kg i.v. bolus; for URINE FLOW: 8 rats
# Method: (§1) The diuretic activities of the synthetic natriuretic peptides (SNP) of this invention and their effects upon electrolyte excretion are determined in male normotensive Sprague-Dawley rats. The animals are anesthetized with sodium pentobarbital (55 mg/kg), the femoral vein is cannulated for injection of the test compound and for infusion of Ringer's solution, the bladder is cannulated for urine collection, and the trachea is cannulated to ensure a clean airway. The animals are infused with Ringer's solution at a rate of 1.2 ml/20 min. for 20 minutes, the infusion rate is then decreased to 1.2 ml/hour for a further 20 minutes, and urine collections are started at the end of that period. Three 10-minute collections are taken as control samples, and at the end of the third 10-minute period the SNP to be tested is injected as a bolus over 30 seconds into the femoral vein. Infusion of Ringer's solution at 1.2 ml/hour is continued for the duration of the experiment, and urine samples are collected every 10 minutes over 4 hours, their respective volumes are determined, and the concentrations of Na^+, Cl^-, and K^+ are measured using a NovaBiomedical electrolyte analyzer. The above determinations are done on samples pooled from all animals in a given experiment, and urine flow is calculated as ml/min./kg body weight while electrolyte concentrations are calculated as mmol/l/gm kidney tissue.
# (§2) Details of the assay method are described above, and it remains only to be stated that 8 male normotensive Sprague-Dawley rats are used in each group. […] Urine flow then decreases sharply and is at control volumes at about 40 minutes where it remains until about 140 minutes.
# [2] = system: male normotensive Sprague-Dawley rats; test: Effects upon electrolyte excretion (Na+, K+, Cl- in urine) after i.v. bolus in anesthetized rats; format: in vivo, rat; settings: 3.5 mcg/kg i.v. bolus; for ELECTROLYTE EXCRETION Cl^- / ELECTROLYTE EXCRETION K^+ / ELECTROLYTE EXCRETION Na^+: pooled urine of 8 rats
# Method: as §1, §2
substance,measurement,setting,value
"BG-3009: known ANP composed of 28 amino acid residues, identical with the ANP described by Flynn et al. (SLRRSSCFGGRIDRIGAQSGLGCNSFRY; not fully specified; ends and bridges not checked; UniProt P01161 123-150, looked up)","effect on urine flow, late phase (in words)",[1]; from 150 minutes (BG-3009: after 130 minutes) to the end of the experiment,hardly noticeable and may not be significant
same,"effect on urine flow, early phase (in words)",[1]; from injection up to 130-140 minutes,shows similar effects up to 130 minutes
same,URINE FLOW,[1]; 10 min after injection,333.7 ml./min./kg. body wt × 10^-3
same,URINE FLOW,[1]; 20 min after injection,55.7 ml./min./kg. body wt × 10^-3
same,URINE FLOW,[1]; 30 min after injection,23.3 ml./min./kg. body wt × 10^-3
same,URINE FLOW,[1]; 40 min after injection,16.4 ml./min./kg. body wt × 10^-3
same,URINE FLOW,[1]; 50 min after injection,16.9 ml./min./kg. body wt × 10^-3
same,URINE FLOW,[1]; 60 min after injection,16.7 ml./min./kg. body wt × 10^-3
same,URINE FLOW,[1]; 70 min after injection,16.4 ml./min./kg. body wt × 10^-3
same,URINE FLOW,[1]; 80 min after injection,16.4 ml./min./kg. body wt × 10^-3
same,URINE FLOW,[1]; 90 min after injection,15.2 ml./min./kg. body wt × 10^-3
same,URINE FLOW,[1]; 100 min after injection,16.0 ml./min./kg. body wt × 10^-3
same,URINE FLOW,[1]; 110 min after injection,17.2 ml./min./kg. body wt × 10^-3
same,URINE FLOW,[1]; 120 min after injection,17.6 ml./min./kg. body wt × 10^-3
same,URINE FLOW,[1]; 130 min after injection,23.4 ml./min./kg. body wt × 10^-3
same,URINE FLOW,[1]; 140 min after injection,22.6 ml./min./kg. body wt × 10^-3
same,URINE FLOW,[1]; 150 min after injection,21.4 ml./min./kg. body wt × 10^-3
same,URINE FLOW,[1]; 160 min after injection,19.7 ml./min./kg. body wt × 10^-3
same,URINE FLOW,[1]; 170 min after injection,19.9 ml./min./kg. body wt × 10^-3
same,URINE FLOW,[1]; 180 min after injection,20.5 ml./min./kg. body wt × 10^-3
same,URINE FLOW,[1]; 190 min after injection,22.3 ml./min./kg. body wt × 10^-3
same,URINE FLOW,[1]; 200 min after injection,22.3 ml./min./kg. body wt × 10^-3
same,URINE FLOW,[1]; 210 min after injection,20.7 ml./min./kg. body wt × 10^-3
same,URINE FLOW,[1]; 220 min after injection,22.7 ml./min./kg. body wt × 10^-3
same,URINE FLOW,[1]; 230 min after injection,28.6 ml./min./kg. body wt × 10^-3
same,URINE FLOW,[1]; 240 min after injection,25.9 ml./min./kg. body wt × 10^-3
same,"effect on Na^+ excretion, early phase (in words)",[2],sharp increases in Na^+ excretion for the first 30-40 minutes
same,effect on K^+ and Cl^- excretion (in words),[2]; early phase,short-lasting decreases in K^+ and Cl^- excretion returning to control values after about 60 minutes
same,"effect on Na^+ and Cl^- excretion, late phase (in words)",[2]; from about 140-160 minutes to 240 minutes,slight increase in Na^+ and Cl^- excretion
same,ELECTROLYTE EXCRETION Cl^-,[2]; 10 min after injection,10.1 mmol/l./gm. kidney tissue
same,ELECTROLYTE EXCRETION K^+,[2]; 10 min after injection,1.5 mmol/l./gm. kidney tissue
same,ELECTROLYTE EXCRETION Na^+,[2]; 10 min after injection,10.0 mmol/l./gm. kidney tissue
same,ELECTROLYTE EXCRETION Cl^-,[2]; 20 min after injection,12.8 mmol/l./gm. kidney tissue
same,ELECTROLYTE EXCRETION K^+,[2]; 20 min after injection,2.4 mmol/l./gm. kidney tissue
same,ELECTROLYTE EXCRETION Na^+,[2]; 20 min after injection,13.2 mmol/l./gm. kidney tissue
same,ELECTROLYTE EXCRETION Cl^-,[2]; 30 min after injection,12.7 mmol/l./gm. kidney tissue
same,ELECTROLYTE EXCRETION K^+,[2]; 30 min after injection,4.9 mmol/l./gm. kidney tissue
same,ELECTROLYTE EXCRETION Na^+,[2]; 30 min after injection,12.4 mmol/l./gm. kidney tissue
same,ELECTROLYTE EXCRETION Cl^-,[2]; 40 min after injection,13.0 mmol/l./gm. kidney tissue
same,ELECTROLYTE EXCRETION K^+,[2]; 40 min after injection,5.6 mmol/l./gm. kidney tissue
same,ELECTROLYTE EXCRETION Na^+,[2]; 40 min after injection,11.1 mmol/l./gm. kidney tissue
same,ELECTROLYTE EXCRETION Cl^-,[2]; 50 min after injection,14.0 mmol/l./gm. kidney tissue
same,ELECTROLYTE EXCRETION K^+,[2]; 50 min after injection,6.6 mmol/l./gm. kidney tissue
same,ELECTROLYTE EXCRETION Na^+,[2]; 50 min after injection,8.8 mmol/l./gm. kidney tissue
same,ELECTROLYTE EXCRETION Cl^-,[2]; 60 min after injection,13.5 mmol/l./gm. kidney tissue
same,ELECTROLYTE EXCRETION K^+,[2]; 60 min after injection,7.4 mmol/l./gm. kidney tissue
same,ELECTROLYTE EXCRETION Na^+,[2]; 60 min after injection,7.8 mmol/l./gm. kidney tissue
same,ELECTROLYTE EXCRETION Cl^-,[2]; 70 min after injection,13.7 mmol/l./gm. kidney tissue
same,ELECTROLYTE EXCRETION K^+,[2]; 70 min after injection,7.7 mmol/l./gm. kidney tissue
same,ELECTROLYTE EXCRETION Na^+,[2]; 70 min after injection,7.1 mmol/l./gm. kidney tissue
